Source: patent US6399353B1, “Papillomavirus: biosynthetic process and assays” (priority 1992, dated 2002)

Experiments:
[1] = system: HPV 31b; assay: Virion production in CIN-612 raft cultures (electron microscopy, isopycnic gradient, Southern blot); assay type: cell-based, Human papillomavirus
Experimental: (§1) Raft cultures were grown for 16 days then harvested, fixed in paraformaldehyde, embedded in paraffin and sectioned for immunohistostaining.
Raft tissue cross-sections were fixed with glutaraldehyde and stained with uranyl acetate. […] Virions were commonly observed in bilobulated koilocytic and dyskeratotic nuclei in which the nuclear chromatin had condensed at the nuclear envelope. At higher magnification the particles could be seen superimposed on heterochromatin, as is often seen in vivo. These particles are not seen in nuclei of untreated CIN-612 raft cultures. Virions approximately 54 nm in diameter were also prevalent in the stratum corneum of raft cultures. […] Similar results have been obtained with material from five separate experiments with different passages of CIN-612 cells.
Because infectious assays have not yet been developed for HPV, we sought to determine if the structures we observed in nuclei of CIN-612 cells were indeed virions. […]
Eight TPA-treated raft cultures were harvested and virions were isolated following a series of low speed and high speed centrifugations. […] Fractions from the bottom of the gradient through fractions determined positive for HPV 31b DNA by dot blot hybridization were dialyzed and examined by Southern blot hybridization. […]

[2] = system: CIN-612 cells; assay: Immunostaining for keratin 10 and filaggrin in CIN-612 raft cultures; assay type: cell-based
[3] = system: L1 major capsid protein in CIN-612 rafts; assay: Immunostaining for L1 major capsid protein in CIN-612 raft cross-sections; assay type: cell-based; conditions: CIN-612 raft cultures, TPA treated; untreated showed no specific nuclear staining
Experimental: as §1
In vivo expression of viral late genes is only detected in the highly differentiated suprabasal cells of infected tissue (Pfister, et al., 1987). Using antiserum to the HPV 16 L1 major capsid protein (Bedell, et al., 1991), which cross reacts with the L1 major capsid protein of various HPV types (Bedell, et al., 1991), the production of the L1 major capsid protein in the CIN-612 rafts grown with or without TPA treatment was determined. CIN-612 raft cross-sections were examined by immunostaining with the VECTASTAIN Elite ABC Kit (Vector Laboratories. Inc., Burlingame, Calif.) after treatment with antiserum against the major late capsid protein, L1.

[4] = CIN-612 rafts, 16 nM TPA, 16 to 24 h every four days, grown 16 days, immunostaining

CCCCCCCCCCCCCC(=O)O[C@@H]1[C@@H](C)[C@@]2(O)[C@@H](C=C(CO)C[C@]3(O)C(=O)C(C)=C[C@@H]23)[C@@H]2C(C)(C)[C@]12OC(C)=O [TPA, 12-O-tetradecanoylphorbol-13-acetate]
production of virions ([1]; TPA added to media of organotypic (raft) cultures, electron microscopy): induced production of virions | yield of viral particles ([1]; eight TPA-treated raft cultures, CsCl gradient fractions (lanes 7 and 8), estimated from copy number standards): at least 40 million | induction of differentiation ([2]; CIN-612 raft cultures, 16 nM TPA in medium, 16 to 24 h every four days): Reproducible induction of differentiation | filaggrin expression [2, 4]: strong expression of filaggrin was observed throughout the stratum granulosum and into the stratum corneum | keratin 10 expression [2, 4]: expressed throughout most of the suprabasal layers, including the stratum corneum | expression of physiological markers of keratinocyte differentiation ([2]; TPA added to media of organotypic (raft) cultures): increased expression | nuclear staining with L1 antiserum (major late capsid protein) [3]: specific nuclear staining was seen in the stratum granulosum and in the stratum corneum
